Here are results for 79 compounds from the METLIN SMRT retention time set (Domingo-Almenara et al. 2019).

This data set in a line: gradient 5% acetonitrile 3 min, to 50% in 2 min, to 85% in 15 min, held 3 min, 100 µL/min. The conditions noted are these: column: Zorbax Extend-C18 2.1 x 50 mm; eluents: water / acetonitrile, 0.1% formic acid. In short, it runs like this: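 Pure standards were run in mixtures of ~100 molecules by HPLC coupled to a quadrupole time-of-flight mass spectrometer. The column was a Zorbax Extend-C18 (2.1 × 50 mm, 1.8 μm) at 100 μL/min, with water and acetonitrile each containing 0.1% formic acid, in positive and negative ionization mode. Dead and dwell volumes were 40 μL and 900 μL. Retention time was taken from computationally picked adduct peaks, each manually inspected, with data collected over 3 months.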
Turning to `O=C(Cn1nc2c(cc1=O)CCCC2)Nc1cccc(N2CCCCS2(=O)=O)c1`, the RP-LC retention time amounted to 715 s.
With `COc1cccc(-c2noc(CN3C(=O)COc4cc(C)ccc43)n2)c1` the figure was 1050 s; with `Cc1nnsc1C(=O)Nc1ccc2c(c1)OCC(C)(C)C(=O)N2C`, 605 s; with `COc1ccc(CC(=O)NCC(c2ccsc2)N2CCc3ccccc3C2)cc1OC` (centres undefined), 573 s.
For `CCc1nc2cc(-c3noc(Cc4ccccc4Cl)n3)ccc2o1` the value was 1170 s; for `Cc1ccc(-c2cc3c4nnc(SCC(=O)Nc5ccccc5F)n4ccn3n2)cc1C`, 985 s.
For `Cc1ccc(Nc2c(-c3ccc(C(=O)O)cc3)nc3cnccn23)cc1` the value was 766 s; for `CCc1nc(-c2cccc(-c3noc(CNC(=O)c4ccccc4)n3)c2)cs1`, 1010 s.
On to `Cc1ccn2cc(C(=O)NCc3ccccc3)nc2c1`, for which the RP-LC retention time is 636 s.
For `CCOC(=O)c1csc(NC(=O)c2ccc3c(c2)OCCO3)n1` the value was 782 s; for `COc1cc(C(=O)N2CCC3(CC2)N=C(c2ccc(Cl)cc2)C(=O)N3)cc(OC)c1OC`, 812 s; for `O=C1NCCCCCN(C(=O)Nc2ccccc2)[C@H]2CCCC[C@@H]12`, 577 s.
For `Cc1ccc(CC(=O)NC2CCN(c3cc(-c4cccs4)[nH]n3)C2)cc1` (centres undefined) the value was 732 s; for `CN(C1CCCCC1)S(=O)(=O)c1ccc(C(=O)Nc2nc3c(s2)Cc2ccccc2-3)cc1`, 1260 s.
The compound `CCc1ccc(S(=O)(=O)N2CCCN(c3ccc(=O)n(-c4ccccc4)n3)CC2)cc1` yielded an RP-LC retention time of 904 s.
With `Cc1cccc(NC(=O)C2C(=O)N(C)C3(C)CC2c2ccccc2O3)c1` (centres undefined) the figure was 995 s.
The compound `CN1CCC(N2CCN(C(=O)c3cc(-c4ccc(F)cc4)cn3C)CC2)CC1` yielded an RP-LC retention time of 576 s.
For `Clc1cccc(-c2ccc(CNCc3ccco3)o2)c1` the value was 837 s.
For `CN1C(=O)COc2ccc(-c3csc(NC(=O)c4ccco4)n3)cc21` the value was 806 s; for `CCNc1cc(N2CCC(CCC(=O)NCCN3CCc4ccccc4C3)CC2)ncn1`, 572 s; for `COC(=O)c1cc(S(=O)(=O)N2CCN(c3ccccn3)CC2)c(C)n1C`, 630 s.
With `COC(=O)c1c(NC(=O)c2cc(C)no2)sc(C)c1C` the figure was 1030 s; with `CCOC(=O)COc1cc(-c2ccc(C)cc2)nc2ccc(NC(=O)c3cccs3)cc12`, 830 s; with `Cc1ccc(-c2cc3c(=O)n(Cc4noc(CN5CCN(C(C)C)CC5)n4)ccn3n2)cc1`, 665 s.
`CCN1CCN(C(=O)CN2C(=O)COc3ccc(C(=O)N4CCCC4)cc32)CC1` yielded an RP-LC retention time of 571 s.
For `CC(C)[C@H]1C(=O)O[C@@H]2CCN3CC=C(COC(=O)[C@](C)(O)[C@]1(C)O)[C@H]23` the value was 584 s.
With `CCCOc1ccc(-c2nc(-c3ccc(N)cc3)cs2)cc1` the figure was 1120 s; with `Cn1nc(COc2ccccc2)c2c1CCN(C(=O)c1ccccn1)C2`, 687 s.
The compound `CCCc1noc(-c2ccnc(-n3cnc(C(=O)N4CCSCC4)c3)c2)n1` had an RP-LC retention time of 873 s.
With `CCN(CC)S(=O)(=O)c1ccc2c(c1)nnn2CCC(=O)N1CCN(c2ccccn2)CC1` the figure was 616 s; with `COc1ccc(-c2cc3ccccc3[nH]2)cc1`, 1100 s.
`O=C(c1ccccn1)N1CCCn2cc(-c3ccccc3)nc21`: the RP-LC retention time was determined as 620 s.
For `CCn1ccc2cc(S(=O)(=O)N3CCC(C(=O)NCCCN4CCCC(C)C4)CC3)ccc21` (centres undefined) the value was 676 s.
The compound `CCc1cccc(C)c1NC(=O)Cn1c(=O)n(-c2cccc(C)c2)c(=O)c2c1cc(C)n2C` showed an RP-LC retention time of 881 s.
For `CN1C(=O)c2cccnc2Sc2cc(NC(=O)c3ccc(Cl)s3)ccc21` the value was 870 s; for `COCCC1CCN(C(=O)c2nn(C)c3ccccc23)CC1`, 771 s.
With `CSc1ccc(-c2nc3cnccn3c2Nc2ccc(C(=O)O)cc2)cc1` the figure was 719 s; with `Cc1nn(-c2ccc(Cl)cc2)c(C)c1S(=O)(=O)N1CCC(C(=O)Nc2ccccc2F)CC1`, 1020 s; with `CCCNC(=O)C1CCCN(c2nc3ncn(CC(=O)Nc4ccc(OCC)cc4)c(=O)c3s2)C1` (centres undefined), 720 s.
With `CC(C)CC(=O)N1CCc2c([nH]c3ccccc23)C12C(=O)N(C)c1ccc(Br)cc12` (centres undefined) the figure was 1040 s; with `O=C(CSc1ncccn1)NCc1cc(-c2ccc(F)cc2)on1`, 700 s.
`COC(=O)c1cc(S(=O)(=O)N2CCCC2C(=O)Nc2ccc(Br)c(C)c2)cn1C` (centres undefined) came in with an RP-LC retention time of 1010 s.
For `N#CCN(c1ccc2c(c1)OCO2)S(=O)(=O)c1ccc2nncn2c1` the value was 692 s; for `CC(=O)N1CCc2cc(S(=O)(=O)C(C)CC(=O)N3CCN(c4ccccc4)CC3)ccc21` (centres undefined), 787 s.
For `c1ccc(-c2nc(N3CCCCCC3)c3ccccc3n2)cc1` the value was 768 s.
In turn, `CC1CN(C2CCCCC2)c2nc3c(c(=O)n(CCCO)c(=O)n3C)n2C1` (centres undefined) had an RP-LC retention time of 803 s.
For `O=C(c1ccoc1)N1CCCn2nc(-c3ccc(Cl)cc3)cc2C1` the value was 802 s; for `O=C(CSc1nnc(-c2cccc(Cl)c2)o1)Nc1ccc(C(F)(F)F)cc1`, 1050 s; for `COc1cc2c(cc1CNC(=O)Cn1cc(C(=O)C(C)C)c3ccccc31)OCCCO2`, 893 s.
With `O=C(NCCn1cnc2cc(C(=O)N3CCCC3)ccc21)Nc1ccc2c(c1)CCC2` the figure was 645 s.
With `Cc1noc(-c2nc(-c3cccnc3)no2)n1` the figure was 736 s.
`CCCN(CC1CCOC1)S(=O)(=O)c1ccccc1CC` (centres undefined) had an RP-LC retention time of 992 s.
For `O=C(Nc1ccon1)c1ccc(-n2cccn2)nn1` the value was 659 s.
For `Cc1[nH]c(C(=O)N2CCC(CC(=O)NCc3cccc(F)c3)CC2)c(C)c1C(=O)OC(C)C` the value was 839 s.
For `Cc1cccc(-c2noc(Cc3nnc(-c4cccc(Br)c4)o3)n2)c1` the value was 1150 s; for `CC(C)c1cc(C(=O)NC2CCCCCC2)nc2ccnn12`, 1170 s; for `CC1=C(c2ccc(C)cc2)S(=O)(=O)N=C1N1CCCN(C(=O)c2ccccn2)CC1`, 758 s.
`COc1ccc(OC)c(S(=O)(=O)N2CCCN(S(=O)(=O)c3ccccc3)CCC(=O)NCC2)c1` returned an RP-LC retention time of 793 s.
With `COc1cccc(NC(=O)Nc2c(-c3ccc(F)cc3)nc3ccccn23)c1` the figure was 677 s; with `O=C(c1cccnc1)N1CCCC(c2n[nH]c(C3CC3)n2)C1` (centres undefined), 486 s.
With `Cc1cccc(-c2noc(CN3N=NC4C(=O)N(c5ccc(C(C)C)cc5)C(=O)C43)n2)c1` (centres undefined) the figure was 1150 s.
With `O=C(CN1C(=O)C2CCCCN2c2ccc(C(=O)N3CCCC3)cc21)NCCc1ccco1` (centres undefined) the figure was 664 s.
With `CN(C)C(=O)c1ccc2c(c1)nc(CN(C)C(=O)Nc1ccccc1Cl)n2C`, the RP-LC retention time is 611 s.
For `CC(C)c1ccc(-c2noc(N3CCC(C(=O)N4CCCCCC4)CC3)n2)cc1` the value was 1180 s; for `O=C(CN1CC=C(c2cnn(-c3ccccc3)c2)CC1)NCC1CCCO1` (centres undefined), 612 s.
Regarding `Cc1cccc(N(C)C(=O)Cn2c(=O)n(-c3ccc(F)cc3)c(=O)c3c2cc(C)n3C)c1`, the RP-LC retention time stood at 888 s.
For `CCOC(=O)c1c(C)oc2ncnc(Nc3ccc4c(c3)OCCO4)c12` the value was 1120 s; for `Cc1noc(-c2ccc(N3CCCC(C(=O)NC(C)c4ccco4)C3)nc2)n1` (centres undefined), 746 s; for `Cc1ccc(-c2c(N3CCN(c4ccccn4)CC3)c(=O)c2=O)cc1`, 660 s.
For `CCCn1c2ccccc2c2nnc(SCC(=O)Nc3nc(-c4ccccc4)cs3)nc21` the value was 1080 s; for `O=c1c2scc(-c3ccc(Br)cc3)c2ncn1Cc1ccccn1`, 938 s.
Take `Cc1ccccc1CNC(=O)c1sc(-c2cn(C)c3ncccc23)nc1C`: the RP-LC retention time amounted to 928 s.
For `NC(=O)C1CCN(C(=O)Cc2cc(-c3ccc(F)cc3)on2)CC1` the value was 630 s; for `CCc1ccc(NC(=O)c2cn(CC3CCCO3)cc3c(=O)n(-c4ccccc4)nc2-3)cc1` (centres undefined), 1160 s; for `CCOCCCNC(=O)CCc1cc2cc(OC)ccc2[nH]c1=O`, 615 s.
With `O=C(Cn1nnc2ccccc2c1=O)NCCc1c[nH]c2ccc(Cl)cc12` the figure was 819 s; with `CCOc1cc(C(=O)Nc2nnc(-c3ccc(Cl)s3)o2)cc(OCC)c1OCC`, 986 s; with `CCc1ccccc1NC(=O)Nc1ccc2nncn2c1`, 662 s.
For `O=C(Cn1c(C(F)(F)F)nc2cc3c(cc21)OCCO3)NCc1ccccc1` the value was 829 s.
